Drawing on patent US10919879B2, “Synthesis and novel salt forms of (R)-5-((E)-2-pyrrolidin-3-ylvinyl)pyrimidine” (Oyster Point Pharma, Inc., priority 2008, dated 2021), this text covers stability, NNR agonist selectivity and water solubility for one compound.

A short description of data set [1]: Stability of the free base. It counts as physicochemical. The following applies: free base form, viscous oil.
A further data set deals with α4β2 nicotinic subtype (Homo sapiens, UniProt P17787+P43681). The following applies: α4β2 over α7, ganglionic and muscle subtypes; background statement, no test described; cited from earlier work.
Sequence of α4β2 nicotinic subtype (P43681 29-627 limits assumed): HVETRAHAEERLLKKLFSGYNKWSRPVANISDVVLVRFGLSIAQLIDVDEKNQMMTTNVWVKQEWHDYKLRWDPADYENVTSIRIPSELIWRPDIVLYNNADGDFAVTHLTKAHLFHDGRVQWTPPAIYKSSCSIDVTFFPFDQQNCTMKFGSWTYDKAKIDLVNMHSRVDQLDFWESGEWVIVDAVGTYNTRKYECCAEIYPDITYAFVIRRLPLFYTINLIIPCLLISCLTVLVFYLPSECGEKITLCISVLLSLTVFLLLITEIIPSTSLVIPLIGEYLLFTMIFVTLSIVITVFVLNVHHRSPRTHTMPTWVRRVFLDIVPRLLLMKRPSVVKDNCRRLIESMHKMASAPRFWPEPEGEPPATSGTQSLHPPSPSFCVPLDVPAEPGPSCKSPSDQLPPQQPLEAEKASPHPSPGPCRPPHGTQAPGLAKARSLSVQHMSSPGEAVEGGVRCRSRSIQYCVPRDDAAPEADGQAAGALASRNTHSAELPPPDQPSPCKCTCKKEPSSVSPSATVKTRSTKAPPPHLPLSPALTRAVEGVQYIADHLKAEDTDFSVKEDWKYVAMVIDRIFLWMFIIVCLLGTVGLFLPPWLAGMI
Sequence of α4β2 nicotinic subtype (P17787 26-502): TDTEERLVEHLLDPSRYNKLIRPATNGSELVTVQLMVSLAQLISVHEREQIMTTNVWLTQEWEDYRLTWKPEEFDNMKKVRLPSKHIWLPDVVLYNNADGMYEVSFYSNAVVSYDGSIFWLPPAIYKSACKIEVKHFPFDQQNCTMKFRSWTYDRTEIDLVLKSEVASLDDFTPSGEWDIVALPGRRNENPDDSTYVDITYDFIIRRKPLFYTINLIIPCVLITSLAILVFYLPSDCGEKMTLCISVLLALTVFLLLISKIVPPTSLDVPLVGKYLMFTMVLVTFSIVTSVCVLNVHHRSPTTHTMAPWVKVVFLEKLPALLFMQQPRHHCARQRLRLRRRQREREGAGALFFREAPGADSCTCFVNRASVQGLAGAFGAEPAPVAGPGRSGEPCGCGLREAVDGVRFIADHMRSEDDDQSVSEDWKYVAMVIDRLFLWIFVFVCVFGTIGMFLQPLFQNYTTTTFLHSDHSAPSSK
Data set [2] in a line: Water solubility of the free base. The following applies: free base form, viscous oil. It counts as physicochemical. On the procedure: Aqueous solubility was determined by suspending sufficient compound in water to give a maximum final concentration of ≥10 mg/mL of the parent free-form of the compound. The suspension was equilibrated at 25° C. for 24 h, and then the pH was measured. The suspension was then filtered through a glass fiber C filter into a 96 well plate. The filtrate was then diluted by a factor of 101. Quantitation was by HPLC with reference to a standard solution of approximately 0.1 mg/mL in DMSO. Different volumes of the standard, diluted and undiluted sample solutions were injected. The solubility was calculated using the peak areas determined by integration of the peak found at the same retention time as the principal peak in the standard injection. If there was sufficient solid in the filter plate, the XRPD was collected.

`C(=C\[C@H]1CCNC1)/c1cncnc1` [(R)-5-((E)-2-pyrrolidin-3-ylvinyl)pyrimidine]: in data set [1], the stability result is “limited”. At α4β2 nicotinic subtype, the NNR agonist selectivity result is “selectivity for the α4β2 nicotinic subtype over other nicotinic subtypes”. Besides, in data set [2], the water solubility result is recorded as “limited”.
